Results reported in patent US4820715A, “Anti-emetic quinuclidinyl benzamides” (Bristol-Myers Company, priority 1987, dated 1989).
Structures can show the parent of a compound that is named as a salt. Where two headings read alike, the source gives them in different places.

Experiments:
[1] = system: Apomorphine-Induced Emesis; assay: Antagonism of Apomorphine-Induced Emesis in Dogs; assay type: in vivo, beagle dogs; settings: Canis lupus familiaris, sc, read-out: Antagonism of Apomorphine-Induced Emesis in the Dog ED50
Method: Unfasted beagle dogs of both sexes were used as test subjects. Test compounds and apomorphine were each administered subcutaneously as aqueous solutions, with the test compound being administered 30 minutes prior to the administration of the apormorphine.
Apomorphine was administered at a dose of 0.3 mg/kg. […] All tests were run in at least two dogs.

[2] = system: Cisplatin-Induced Emesis; assay: Antagonism of Cisplatin-Induced Emesis in the Ferret; assay type: in vivo, Fitch ferrets; settings: Mustela putorius, iv, 4 h, read-out: Antagonism of Cisplatin-Induced Emesis in the Ferret, % Protection
Source text: The ventral and dorsal area of the neck is shaved and a 3 cm incision is made. The left jugular vein is exposed and ligated with a silk suture at the cephalic end. The indwelling catheter is constructed of Silastic tubing 18 cm in length (0.020 inch I.D.×0.037 inch O.D.) with a 2 cm polyethylene sleeve (0.045 inch I.D.×0.062 inch O.D.) filled with heparin (1000 units/ml) and sealed at the exposed end with a 23 gauge×1 inch needle crimped at both ends. A small cut is made in the jugular and the catheter inserted, allowing the free end to be delivered through a 13 gauge×5 cm trochar under the skin and attached to the nape of the neck with a silk suture. The ferrets are housed in individual cages and allowed 2-4 days recovery before testing. On the test day, the test compounds were administered i.v. […] The cisplatin solution was prepared by adding 70° C. physiological saline, stirring and sonicating until dissolved. The resulting solution (4 mg/ml) was maintained at 40° C. and administered i.v. ([…]) via the catheter. Following administration of cisplatin, the ferrets were observed continuously for four hours and emetic episodes recorded. Two or more emetic episodes within a one-minutes period was considered as a single episode. The ferrets were euthanized with T-61 i.v. at the termination of the experiment, and proper placement of the catheter was verified.

[3] = system: field-stimulated guinea pig ileum; assay: Gastrokinetic Activity: contraction of field-stimulated guinea pig ileum preparations; design: species or system guinea pig (Hartley); settings: Cavia porcellus
Method: This activity is considered to be correlated with gastrokinetic (prokinetic) activity in vivo, i.e. enhancement of gastric motility and gastric emptying.
Normal, male guinea pigs (Hartley; Charles River) weighing […] are sacrificed by cervical dislocation. The terminal portion of the ileum was removed after discarding a 10 cm segment nearest to the ileocecal junction. The strips, 3-4 cm in length, were mounted in a 20 ml organ bath containing Krebs physiological buffer solution. The buffer was bubbled with 95% O2 -5% CO2 and kept at 37° C. The resting tension was adjusted to 1.0 g, and the tissues were equilibrated without stimulation for 15 minutes. For electrical stimulation, a platinum wire (cathode) was threaded up through the lumen and another platinum wire (anode) was attached to the glass rod that suspended the muscle. Tissues were stimulated coaxially at 1.5 times the voltage necessary to produce maximum twitch height, with single pulses, 0.5 msec in duration, delivered once every 10 seconds. After the 15 minute equilibration period (without stimulation), the stimulator (Grass S88 Stimulator) was turned on and the tissues were allowed to stabilize for approximately 1 hour, or until the twitch height remained constant, with washes every 20 minutes.

[4] = s.c. 30 minutes prior to apomorphine 0.3 mg/kg, dog

Row | Compound | ED50 [1, 4] | inhibition in vivo at 3 mg/kg ([2]; 3 mg/kg, i.v. × 2) | further results
1 | CCN(CC)CCNC(=O)c1cc(Cl)c(N)cc1OCC(OC)OC [Example 3, 4-Amino-5-chloro-N-[2-(diethylamino)ethyl]-2-(2,2-dimethoxyethoxy)benzamide] | > 3 mg/kg | 82% | 
2 | CCN(CC)CCNC(=O)c1cc(Cl)c(N)cc1OCC(C)O (stereo not drawn) [Example 12, 4-Amino-5-chloro-N-[2-(diethylamino)ethyl]-2-(2-hydroxypropan-1-yl)oxybenzamide] | > 3 mg/kg | 86% | 
3 | CCN(CC)CCNC(=O)c1cc(Cl)c(N)cc1OCCOCCOC [Example 46, 4-Amino-5-chloro-N-[2-(diethylamino)ethyl]-2-(2-methoxyethoxyethyl)oxybenzamide] | > 3 mg/kg | 76% | 
4 | CCN(CC)CCNC(=O)c1cc(Cl)c(N)cc1OCC(=O)c1ccccc1 [Example 6, 4-Amino-2-(2-phenyl-2-oxoethoxy)-5-chloro-N-[2-(diethylamino)ethyl]benzamid] | > 3 mg/kg | 100% | 
5 | CN(C)CCNC(=O)c1cc(Cl)c(N)cc1O [Example 17, 4-Amino-5-chloro-N-[2-(dimethylamino)ethyl]-2-hydroxybenzamide] |  |  | activation at 10 µM ([3]; at 10 μM, read-out: Average % Maximum Increase): 41%; EC30 ([3]; effective concentration30, read-out: EC30 (95% C.L.)): 5.4 µM; EC50 ([3]; effective concentration50, read-out: EC50 (95% C.L.)): 15 µM; minimal effective concentration ([3]; read-out: Minimum Effective Concentration): 0.3 µM
6 | CCC(=O)C(C)Oc1cc(N)c(Cl)cc1C(=O)NCCN(CC)CC.Cl (stereo not drawn) [Example 28, 4-Amino-5-chloro-2-(pentan-3-on-2-yl)oxy-N-(2-diethylaminoethyl)benzamide hydrochloride] | > 3 mg/kg |  | inhibition in vivo at 1 mg/kg ([2]; i.v. × 2): 82%
7 | CCN(CC)CCNC(=O)c1cc(Cl)c(N)cc1OC1CCCCC1=O (stereo not drawn) [Example 9, 4-Amino-5-chloro-2-(cyclohexanon-2-yl)oxy-N-[2-(diethylamino)ethyl]benzamide] | > 3 mg/kg | 100% | 
8 | CCN(CC)CCNC(=O)c1cc(Cl)c(N)cc1OC(C)C(C)O (mixture of isomers) [Example 41, 4-Amino-5-chloro-N-[2-(diethylamino)ethyl]-2-[(2-hydroxy)but-3-yl]oxybenzamide (mixture of threo and erythro isomers)] | > 3 mg/kg | 81% | 
9 | CCN(CC)CCNC(=O)c1cc(Cl)c(N)cc1OCC1COC(C)(C)O1 (stereo not drawn) [Example 18, 4-Amino-5-chloro-N-[2-(diethylamino)ethyl]-2-(2,2-dimethyl-1,3-dioxalan-4-yl)methoxybenzamide] | > 3 mg/kg | 72% | 
10 | CCN(CC)CCNC(=O)c1cc(Cl)c(N)cc1OC(C)C(C)=O (stereo not drawn) [Example 7, 4-Amino-2-(butan-2-on-3-yl)oxy-5-chloro-N-[2-(diethylamino)ethyl]benzamide] | > 3 mg/kg | 95% | 
11 | CCN(CC)CCNC(=O)c1cc(Cl)c(N)cc1OCC(C)=O [Example 5, 4-Amino-5-chloro-N-[2-(diethylamino)ethyl]-2-(2-propanon-1-yl)oxybenzamide] | > 3 mg/kg | 90% | 
12 | CCN(CC)CCNC(=O)c1cc(Cl)c(N)cc1OCC(O)Cc1ccccc1 (stereo not drawn) [Example 33, 4-Amino-5-chloro-N-[2-(diethylamino)ethyl]-2-[2-(2-hydroxy-3-phenylpropyl)]oxybenzamide] | > 3 mg/kg |  | inhibition in vivo at 1 mg/kg ([2]; i.v. × 2): 54%
13 | CCN(CC)CCNC(=O)c1cc(Cl)c(N)cc1OCCOC [Example 1, 4-Amino-5-chloro-N-[2-(diethylamino)ethyl]-2-(2-methoxyethoxy)benzamide] | > 3 mg/kg | 76% | 
14 | CCN(CC)CCNC(=O)c1cc(Cl)c(N)cc1OC(C)(C)C(C)=O.O [Example 31, 4-Amino-5-chloro-N-[2-(diethylamino)ethyl]-2-[(3-methyl)butan-2-on-3-yl]oxybenzamide monohydrate] | > 3 mg/kg |  | inhibition in vivo at 1 mg/kg ([2]; i.v. × 2): 67%
15 | CCN(CC)CCNC(=O)c1cc(Cl)c(N)cc1OCC(=O)OC [Example 15, 4-Amino-5-chloro-N-[2-(diethylamino)ethyl]-2-(2-methoxy-2-oxoethoxy)benzamide] | > 3 mg/kg | 30% | 
16 | O=c1[nH]c2ccccc2n1CCCN1CCC(n2c(=O)[nH]c3cc(Cl)ccc32)CC1 [Domperidone, reference compound] |  |  | ED50 [1]: 0.2 mg/kg; inhibition in vivo at 3 mg/kg [2]: 50%
17 | CCN(CC)CCNC(=O)c1cc(Cl)c(N)cc1OCC#N [Example 13, 4-Amino-5-chloro-2-cyanomethoxy-N-[2-(diethylamino)ethyl]benzamide] | > 3 mg/kg | 90% | 
18 | CCN(CC)CCNC(=O)c1cc(Cl)c(N)cc1OCCO [Example 2, 4-Amino-5-chloro-N-[2-(diethylamino)ethyl]-2-(2-hydroxyethoxy)benzamide] | > 3 mg/kg | 68% | 
19 | CCN(CC)CCNC(=O)c1cc(Cl)c(N)cc1OCc1ccccn1 [Example 45, 4-Amino-5-chloro-N-[2-(diethylamino)ethyl]-2-(2-pyridinomethyl)oxybenzamide] | > 3 mg/kg | 80% | 
20 | C=CCC(Oc1cc(N)c(Cl)cc1C(=O)NCCN(CC)CC)C(C)=O (stereo not drawn) [Example 24, 4-Amino-5-chloro-N-[2-(diethylamino)ethyl]-2-(5-hexan-2-on-3-yl)oxybenzamide hydrochloride] | > 3 mg/kg | 67% | 
21 | CCN(CC)CCNC(=O)c1cc(Cl)c(N)cc1OCC(=O)Cc1ccccc1 [Example 30, 4-Amino-5-chloro-N-[2-(diethylamino)ethyl]-2-(3-phenyl-2-propanon-1-yl)oxybenzamide] | > 3 mg/kg | 100% | 
22 | CCN(CC)CCNC(=O)c1cc(Cl)c(N)cc1OCC(C)=NO [Example 10, 4-Amino-5-chloro-N-[2-(diethylamino)ethyl]-2-[(2-hydroxyimino)propan-1-yl]oxybenzamide] | > 3 mg/kg | 100% | 
23 | CCN(CC)CCNC(=O)c1cc(Cl)c(N)cc1OCC1OCCO1 [Example 43] | > 3 mg/kg | 67% | 
24 | CCN(CC)CCNC(=O)c1cc(Cl)c(N)cc1OCCC1(C)OCCO1 [Example 54] | > 3 mg/kg | 81% | 
25 | CCN(CC)CCNC(=O)c1cc(Cl)c(N)cc1OCC(=O)C(C)C [Example 29, 4-Amino-5-chloro-N-[2-(diethylamino)ethyl]-2-[(3-methyl)-butan-2-on-1-yl]oxybenzamide] | > 3 mg/kg |  | inhibition in vivo at 1 mg/kg ([2]; i.v. × 2): 44%
26 | CCC(Oc1cc(N)c(Cl)cc1C(=O)NCCN(CC)CC)C(C)=O (stereo not drawn) [Example 25, 4-Amino-5-chloro-N-[2-(diethylamino)ethyl]-2-(pentan-2-on-3-yl)oxybenzamide] | > 3 mg/kg |  | inhibition in vivo at 1 mg/kg ([2]; i.v. × 2): 58%
27 | CCC(=O)COc1cc(N)c(Cl)cc1C(=O)NCCN(CC)CC [Example 26, 4-Amino-2-(2-butanon-1-yl)oxy-5-chloro-N-[2-(diethylamino)-ethyl]benzamide] | > 3 mg/kg | 90% | 
28 | CCCC(=O)COc1cc(N)c(Cl)cc1C(=O)NCCN(CC)CC [Example 27, 4-Amino-5-chloro-N-[2-(diethylamino)ethyl]-2-(pentan-2-on-1-yl)oxybenzamide] | > 3 mg/kg |  | inhibition in vivo at 1 mg/kg ([2]; i.v. × 2): 90%
29 | CCN(CC)CCNC(=O)c1cc(Cl)c(N)cc1OCC(=O)c1cccs1 [Example 52, 4-Amino-5-chloro-N-[2-(diethylamino)ethyl]-2-(2-thienoylmethoxy)benzamide] | > 3 mg/kg | 95% | 
